For the assay, the target named is SRPK1 (Homo sapiens, UniProt Q96SB4). Nature of the assay: SRPK1 assay, Method 1 (ADP-Glo luminescence). Format: biochemical. Particulars: Method 1 (no asterisk): substrate Human SRSF1/SF2, 25° C. for 90 min, test compounds 30 μM top, 3-fold, duplicate. How it is done:
The SPRK1 assay was performed as follows:
Method 1: The assay buffer was prepared. The reference compound was diluted to 10 mM. The test compounds were prepared at a concentration of 30 mM. Fifteen nL of compounds/DMSO were transferred to a multi-well plate. Then, 7.5 ul enzyme SRPK1 was added to each well, the plate was spun down at 1000 rpm and centrifuged for 30 sec. Then, 7.5 ul substrate Human SRSF1/SF2 was added to each well, the plate spun down at 1000 rpm and centrifuged for 30 sec. The plate was then incubated at 25° C. for 90 min. After 90 min, 5 μl of ADP-Glo™ Reagent was added to each well and the plate incubated at room temperature for 60 minutes. Then, 10 μl of Kinase Detection Reagent was added to each well and the plate incubate at room temperature for 60 minutes. The luminescence of each well was recorded on Envision. The test compounds were at 30 μM top, 3-fold, in duplicate, and the final concentration of DMSO was 0.1%.
All assays were performed using Method 1, except where indicated with an asterisk (*) in the below table, indicating Method 2 was used.

Sequence of SRPK1 (Q96SB4 whole entry): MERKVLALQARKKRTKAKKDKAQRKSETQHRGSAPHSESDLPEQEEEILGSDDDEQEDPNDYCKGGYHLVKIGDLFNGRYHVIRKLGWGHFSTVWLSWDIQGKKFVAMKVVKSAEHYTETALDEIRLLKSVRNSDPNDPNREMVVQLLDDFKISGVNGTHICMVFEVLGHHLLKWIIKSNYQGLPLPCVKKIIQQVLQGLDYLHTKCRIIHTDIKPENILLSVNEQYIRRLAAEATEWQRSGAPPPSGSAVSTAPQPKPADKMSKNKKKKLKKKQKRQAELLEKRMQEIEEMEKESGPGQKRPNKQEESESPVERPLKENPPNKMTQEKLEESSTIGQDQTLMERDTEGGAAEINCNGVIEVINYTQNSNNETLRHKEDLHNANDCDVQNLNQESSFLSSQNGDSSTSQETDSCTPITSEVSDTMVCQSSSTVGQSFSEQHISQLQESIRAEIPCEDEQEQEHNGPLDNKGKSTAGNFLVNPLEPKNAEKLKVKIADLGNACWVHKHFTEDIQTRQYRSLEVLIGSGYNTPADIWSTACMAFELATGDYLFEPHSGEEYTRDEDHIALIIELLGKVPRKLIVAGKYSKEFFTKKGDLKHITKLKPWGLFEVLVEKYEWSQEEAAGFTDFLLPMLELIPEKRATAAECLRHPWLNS

`O=C1CC2(CCN(c3ncc(C(F)(F)F)cc3NC(=O)c3ccc(C4CCOCC4)o3)CC2)C1` [Compound 065, N-(2-(2-oxo-7-azaspiro[3.5]nonan-7-yl)-5-(trifluoromethyl)pyridin-3-yl)-5-(tetrahydro-2H-pyran-4-yl) furan-2-carboxamide]: the IC50 was found to be 204 nM.
`CN1CCC(c2ccc(C(=O)Nc3cc(C(F)(F)F)cnc3N3CCC(O)CC3)o2)CC1` [Compound 066, N-[2-(4-hydroxy-1-piperidyl)-5-(trifluoromethyl)-3-pyridyl]-5-(1-methyl-4-piperidyl) furan-2-carboxamide]: the IC50 is > 30000 nM.
`CC(=O)OC1CCN(c2ncc(C(F)(F)F)cc2NC(=O)c2ccc(C(F)(F)F)cn2)CC1` [Compound 068]: the IC50 was > 30000 nM.
With `O=C(Nc1cc(C(F)(F)F)cnc1N1CCC(O)(C(F)(F)F)CC1)c1ccc(C2CCOCC2)o1` [Compound 069], the IC50 stood at 63.7 nM.
`O=C(Nc1cc(C(F)(F)F)cnc1N1CCC(F)(F)CC1)c1ccc(-c2ccncc2)o1` [Compound 070]: the IC50 was determined as 4640 nM.
Take `CN1CCC(c2ncc(C(F)(F)F)cc2NC(=O)c2ccc(C3CCOCC3)o2)CC1` [Compound 071, N-(2-(1-methylpiperidin-4-yl)-5-(trifluoromethyl)pyridin-3-yl)-5-(tetrahydro-2H-pyran-4-yl) furan-2-carboxamide]: the IC50 amounted to 6870 nM.
For `O=C(Nc1cc(C(F)(F)F)cnc1N1CCCC(O)C1)c1ccc(C2CCOCC2)o1` (centres unmarked) [Compound 072], the IC50 worked out at 754 nM.
`O=C(Nc1cc(C(F)(F)F)cnc1N1CCC2(CCNC2=O)CC1)c1ccc(C2CCOCC2)o1` [Compound 073] yielded a 50% inhibitory concentration (IC50) of 59.3 nM.
The figure for `O=C(Nc1cc(C(F)(F)F)cnc1N1CCC(O)CC1)c1ccc(-c2cnccn2)o1` [Compound 074, N-(2-(4-hydroxypiperidin-1-yl)-5-(trifluoromethyl)pyridin-3-yl)-5-(pyrazin-2-yl) furan-2-carboxamide] is 641 nM; for `C[C@H]1C[C@@H](O)CCN1c1ncc(C(F)(F)F)cc1NC(=O)c1ccc(C2CCOCC2)o1` [Compound 075] it is 13.1 nM; for `C[C@H]1C[C@H](O)CCN1c1ncc(C(F)(F)F)cc1NC(=O)c1ccc(C2CCOCC2)o1` [Compound 076] it is 14.2 nM.
For `O=C(Nc1cc(C(F)(F)F)cnc1N1CCC(O)CC1)c1ccc(C(F)(F)F)cn1` [Compound 077], the IC50 was > 30000 nM.
The figure for `O=C(Nc1cc(C(F)(F)F)cnc1N1CCc2n[nH]cc2C1)c1ccc(C2CCOCC2)o1` [Compound 078] is 27.9 nM; for `O=C1CCC2(CCN(c3ncc(C(F)(F)F)cc3NC(=O)c3ccc(C4CCOCC4)o3)CC2)N1` [Compound 081] it is 215 nM.
The figure for `O=C(Nc1cc(C(F)(F)F)cnc1N1CCC2(CCOC2=O)CC1)c1ccc(C2CCOCC2)o1` [Compound 082] is 55.5 nM; for `O=C(Nc1cc(C(F)(F)F)cnc1N1CCC(CO)CC1)c1ccc(C2CCOCC2)o1` [Compound 083] it is 39.8 nM.
The compound `O=C(Nc1cc(C(F)(F)F)cnc1N1CCC(O)CC1)c1ccc(-c2cc[nH]n2)o1` [Compound 084] had a half-maximal inhibitory concentration (IC50) of 60.7 nM.
Compound `CC(=O)N1CCN(c2ncc(C(F)(F)F)cc2NC(=O)c2ccc(C3CCOCC3)o2)CC1` [Compound 085] showed a 50% inhibitory concentration (IC50) of 2050 nM.
Compound `O=C(Nc1cc(C(F)(F)F)cnc1N1CCC(O)CC1)c1cccc(Cl)n1` [Compound 087] showed an IC50 of 249 nM.
Compound `NC(=O)C1CCN(c2ncc(C(F)(F)F)cc2NC(=O)c2ccc(C3CCOCC3)o2)CC1` [Compound 088] displayed an IC50 of 71.7 nM.
For `O=C(Nc1cc(C(F)(F)F)cnc1N1CCC(O)CC1)c1ccc(F)cn1` [Compound 089], the IC50 came out at 878 nM.
`COc1ccc(C(=O)Nc2cc(C(F)(F)F)cnc2N2CCC(O)CC2)nc1` [Compound 090] came in with a half-inhibitory concentration (IC50) of 1380 nM.
For the compound `O=C(Nc1cc(C(F)(F)F)cnc1N1CCC(O)CC1)c1cc(Cl)ccn1` [Compound 091], the half-inhibitory concentration (IC50) was > 30000 nM.
`O=C(Nc1cc(C(F)(F)F)cnc1N1CCC(O)CC1)c1ccc(Cl)cn1` [Compound 093] displayed a 50% inhibitory concentration (IC50) of 1260 nM.
For `O=C(Nc1cc(C(F)(F)F)cnc1N1CCC(O)CC1)c1cc(-c2cn[nH]c2)ccn1` [Compound 094, N-[2-(4-hydroxy-1-piperidyl)-5-(trifluoromethyl)-3-pyridyl]-4-(1H-pyrazol-4-yl)pyridine-2-carboxamide], the IC50 is > 30000 nM.
As to `NC(=O)C1(O)CCN(c2ncc(C(F)(F)F)cc2NC(=O)c2ccc(C3CCOCC3)o2)CC1` [Compound 096, 4-hydroxy-1-[3-[(5-tetrahydropyran-4-ylfuran-2-carbonyl)amino]-5-(trifluoromethyl)-2-pyridyl]piperidine-4-carboxamide], half-maximal inhibition (IC50) was put at 18.3 nM.
For `O=C(O)c1ccc(C(=O)Nc2cc(C(F)(F)F)cnc2N2CCC(O)CC2)o1` [Compound 098] the value was 871 nM; for `O=C(Nc1cc(C(F)(F)F)cnc1N1CCC(O)CC1)c1cccc(-c2cn[nH]c2)n1` [Compound 100], 59.7 nM; for `O=C(Nc1cc(C(F)(F)F)cnc1N1CCC(O)CC1)c1cnn(C2CCOCC2)c1` [Compound 101], > 30000 nM.
The compound `O=C1C=C(c2ccc(C(=O)Nc3cc(C(F)(F)F)cnc3N3CCC(O)CC3)o2)CCO1` [Compound 102] yielded an IC50 of 340 nM.
For the compound `O=C(Nc1cc(C(F)(F)F)cnc1N1CCC(O)CC1)c1ccn(C2CCOCC2)n1` [Compound 103], the IC50 worked out at 136 nM.
`O=C(Nc1cc(C(F)(F)F)cnc1N1CCC(O)CC1)c1ccc(-c2c[nH]cn2)o1` [Compound 104] came in with an IC50 of 556 nM.
Compound `O=C(Nc1cc(C(F)(F)F)cnc1N1CCC(O)CC1)c1ccc(-c2nc[nH]n2)o1` [Compound 105] registered an IC50 of 1530 nM.
For `Nc1n[nH]cc1-c1ccc(C(=O)Nc2cc(C(F)(F)F)cnc2N2CCC(O)CC2)o1` [Compound 106, 5-(3-amino-1H-pyrazol-4-yl)-N-[2-(4-hydroxy-1-piperidyl)-5-(trifluoromethyl)-3-pyridyl]furan-2-carboxamide] the value was 142 nM; for `C[C@@H]1C[C@@H](O)CCN1c1ncc(C(F)(F)F)cc1NC(=O)c1ccc(Br)o1` [Compound 107, 5-bromo-N-[2-[(2R,4S)-4-hydroxy-2-methyl-1-piperidyl]-5-(trifluoromethyl)-3-pyridyl]furan-2-carboxamide], 746 nM; for `O=C(Nc1cc(C(F)(F)F)cnc1N1CCC(O)CC1)c1ccc(-c2cn[nH]n2)o1` [Compound 108], 14.8 nM.
As for `C[C@@H]1C[C@H](O)CCN1c1ncc(C(F)(F)F)cc1NC(=O)c1ccc(Br)o1` [Compound 109], the 50% inhibitory concentration (IC50) is 746 nM.
`C[C@@H]1C[C@H](O)CCN1c1ncc(C(F)(F)F)cc1NC(=O)c1ccc(-c2cn[nH]c2)o1` [Compound 110] returned an IC50 of 16.1 nM.
In the case of `C[C@@H]1C[C@H](O)CCN1c1ncc(C(F)(F)F)cc1NC(=O)c1ccc(-c2ccnc(N)c2)o1` [Compound 111], 39.4 nM corresponded to half-maximal inhibition (IC50).
As for `C[C@@H]1C[C@@H](O)CCN1c1ncc(C(F)(F)F)cc1NC(=O)c1ccc(-c2cn[nH]c2)o1` [Compound 113], the IC50 was > 30000 nM.
As to `C[C@@H]1C[C@@H](O)CCN1c1ncc(C(F)(F)F)cc1NC(=O)c1ccc(-c2ccnc(N)c2)o1` [Compound 114], the IC50 is > 30000 nM.
Turning to `O=C(Nc1cc(C(F)(F)F)cnc1N1CCc2[nH]ncc2C1)c1ccc(Br)o1` [Compound 115], the IC50 was > 30000 nM.
For `C[C@@H]1C[C@@H](O)CCN1c1ncc(C2CC2)cc1NC(=O)c1ccc(Br)o1` [Compound 116], the IC50 was > 30000 nM.
Regarding `C#Cc1ccc(C(=O)Nc2cc(C(F)(F)F)cnc2N2CCC(O)CC2)o1` [Compound 117], the IC50 is > 30000 nM.
With `C[C@@H]1C[C@@H](O)CCN1c1ncc(C2CC2)cc1NC(=O)c1ccc(-c2ccnc(N)c2)o1` [Compound 119], the IC50 was > 30000 nM.
On to `O=C(Nc1cc(C2CC2)cnc1N1CCc2[nH]ncc2C1)c1ccc(Br)o1` [Compound 120], for which the concentration for half-maximal inhibition (IC50) is > 30000 nM.
As to `O=C(Nc1cc(C2CC2)cnc1N1CCc2[nH]ncc2C1)c1ccc(-c2cn[nH]c2)o1` [Compound 121], the IC50 is > 30000 nM.
`Nc1cc(-c2ccc(C(=O)Nc3cc(C4CC4)cnc3N3CCc4[nH]ncc4C3)o2)ccn1` [Compound 122]: the IC50 is > 30000 nM.
Take `O=C(Nc1cc(C(F)(F)F)cnc1N1CCc2[nH]ncc2C1)c1ccc(-c2cn[nH]c2)o1` [Compound 123]: the IC50 is > 30000 nM.
Take `Nc1cc(-c2ccc(C(=O)Nc3cc(C(F)(F)F)cnc3N3CCc4[nH]ncc4C3)o2)ccn1` [Compound 124]: the IC50 is > 30000 nM.
For the compound `O=C(Nc1cc(C2CC2)cnc1N1CCC(O)CC1)c1ccc(-c2cn[nH]c2)cn1` [Compound 125], the IC50 was > 30000 nM.
For the compound `C[C@@H]1C[C@H](O)CCN1c1ncc(C2CC2)cc1NC(=O)c1ccc(Br)o1` [Compound 126], the IC50 is > 30000 nM.
Consider `C[C@@H]1C[C@H](O)CCN1c1ncc(C2CC2)cc1NC(=O)c1ccc(-c2cn[nH]c2)o1` [Compound 127], for which the half-inhibitory concentration (IC50) was > 30000 nM.
For the compound `C[C@@H]1C[C@H](O)CCN1c1ncc(C2CC2)cc1NC(=O)c1ccc(-c2ccnc(N)c2)o1` [Compound 128], the IC50 was > 30000 nM.
Regarding `O=C(Nc1cc(C(F)(F)F)cnc1N1CCC(O)CC1)c1ccc(-c2cn[nH]c2)cc1` [Compound 129], the half-maximal inhibitory concentration (IC50) was > 30000 nM.
Consider `Nc1cc(-c2ccc(C(=O)Nc3cc(C(F)(F)F)cnc3N3CCc4[nH]ncc4C3)o2)cc(N)n1` [Compound 130], for which the 50% inhibitory concentration (IC50) was > 30000 nM.

The term IC50 denotes the concentration that gives 50% inhibition. High values mean a need for much substance, low ones inhibition by little substance.
